The text below walks through data of ChEMBL document CHEMBL4219190, “Studies on synthesis of novel pyrido[2,3-d]pyrimidine derivatives, evaluation of their antimicrobial activity and molecular docking” (Bioorg Med Chem Lett, 2018).

In test [1] the test system is Pseudomonas aeruginosa. The test is described as follows: Antibacterial activity against Pseudomonas aeruginosa MTCC 2453 after 24 hrs by well diffusion method. The class given is functional. (In general: In agar diffusion tests the substance spreads into inoculated agar from a disc or well.)
Test [2] deals with Raoultella planticola. The test is described as follows: Antibacterial activity against Klebsiella planticola MTCC 530 after 24 hrs by well diffusion method. The class given is functional.
Test [3] has as its system Escherichia coli. As to the kind of experiment: Antibacterial activity against Escherichia coli MTCC 739 after 24 hrs by well diffusion method. The test is classed as functional.
In test [4] the test system is Micrococcus luteus. As to the kind of experiment: Antibacterial activity against Micrococcus luteus MTCC 2470 after 24 hrs by well diffusion method. The test is classed as functional.
Test [5] concerns Bacillus subtilis. The test is described as follows: Antibacterial activity against Bacillus subtilis MTCC 121 after 24 hrs by well diffusion method. The class given is functional.
Test [6] has as its system Staphylococcus aureus. The test is described as follows: Antibacterial activity against Staphylococcus aureus MLS16 MTCC 2940 after 24 hrs by well diffusion method. The test is classed as functional.
The test system of test [7] is Staphylococcus aureus. The test is described as follows: Antibacterial activity against Staphylococcus aureus MTCC 96 after 24 hrs by well diffusion method. The test is classed as functional.
Test [8] has as its system Raoultella planticola. The test is described as follows: Antibiofilm activity against Klebsiella planticola MTCC 530 after 24 hrs by crystal violet staining-based assay. The test is classed as functional, organism-based.
The test system of test [9] is Staphylococcus aureus. The test is described as follows: Antibiofilm activity against Staphylococcus aureus MTCC 96 after 24 hrs by crystal violet staining-based assay. The class given is functional, organism-based.
For test [10], the system named is Staphylococcus aureus. The test is described as follows: Antibiofilm activity against Staphylococcus aureus MLS16 MTCC 2940 after 24 hrs by crystal violet staining-based assay. The test is classed as functional, organism-based.
Test [11] has as its system Staphylococcus aureus. The test is described as follows: Bactericidal activity against Staphylococcus aureus MTCC 96 incubated for 24 hrs followed by transfer of microbial suspension to Mueller Hinton agar plates and measured after 24 hrs post transfer. The test is classed as functional.
Test [12] relates to Bacillus subtilis. The test is described as follows: Bactericidal activity against Bacillus subtilis MTCC 121 incubated for 24 hrs followed by transfer of microbial suspension to Mueller Hinton agar plates and measured after 24 hrs post transfer. The class given is functional.
For test [13], the system named is Pseudomonas aeruginosa. As to the kind of experiment: Bactericidal activity against Pseudomonas aeruginosa MTCC 2453 incubated for 24 hrs followed by transfer of microbial suspension to Mueller Hinton agar plates and measured after 24 hrs post transfer. The class given is functional.
Test [14] has as its system Micrococcus luteus. As to the kind of experiment: Bactericidal activity against Micrococcus luteus MTCC 2470 incubated for 24 hrs followed by transfer of microbial suspension to Mueller Hinton agar plates and measured after 24 hrs post transfer. The test is classed as functional.
The subject of test [15] is Pseudomonas aeruginosa. As to the kind of experiment: Antibiofilm activity against Pseudomonas aeruginosa MTCC 2453 after 24 hrs by crystal violet staining-based assay. The test is classed as functional, organism-based.
Test [16] has as its system Escherichia coli. As to the kind of experiment: Bactericidal activity against Escherichia coli MTCC 739 incubated for 24 hrs followed by transfer of microbial suspension to Mueller Hinton agar plates and measured after 24 hrs post transfer. The test is classed as functional.
In test [17] the test system is Staphylococcus aureus. The test is described as follows: Bactericidal activity against Staphylococcus aureus MLS16 MTCC 2940 incubated for 24 hrs followed by transfer of microbial suspension to Mueller Hinton agar plates and measured after 24 hrs post transfer. The class given is functional.
Test [18] relates to Bacillus subtilis. As to the kind of experiment: Antibiofilm activity against Bacillus subtilis MTCC 121 after 24 hrs by crystal violet staining-based assay. The test is classed as functional, organism-based.
In test [19] the test system is Raoultella planticola. The test is described as follows: Bactericidal activity against Klebsiella planticola MTCC 530 incubated for 24 hrs followed by transfer of microbial suspension to Mueller Hinton agar plates and measured after 24 hrs post transfer. The test is classed as functional.
The mark [20] stands for this setting: Klebsiella planticola, MTCC 530, 24 h, read-out: IC50.
Setting [21] is: Staphylococcus aureus, MTCC 96, 24 h, read-out: IC50.

SMILES strings stand for the structures. ≈ marks a conversion by molar mass, not a printed value. Calls of active or inactive are those of the source.

On to `COc1ccc(-c2nc(C(=O)N3CCN(CCO)CC3)nc3nc(-c4ccccc4)cc(C(F)(F)F)c23)cc1`, for which the MIC result in the test on Pseudomonas aeruginosa [1], with Raoultella planticola [2], in the test with Escherichia coli [3], in the test on Micrococcus luteus [4], in the test with Bacillus subtilis [5] and in the test on Staphylococcus aureus [6] was “inactive” throughout. Besides, the MIC (commonly the least concentration at which growth counts as inhibited) in the test with Staphylococcus aureus [7] was “inactive”.

In the case of `COc1ccc(-c2nc(C(=O)NCc3ccccc3)nc3nc(-c4ccccc4)cc(C(F)(F)F)c23)cc1`, the MIC result with Pseudomonas aeruginosa [1], in the test on Raoultella planticola [2], in the test with Escherichia coli [3], in the test on Micrococcus luteus [4], with Bacillus subtilis [5] and in the test on Staphylococcus aureus [6] was “inactive” each time. In the test on Staphylococcus aureus [7], the MIC result was “inactive”.

As for `O=C(NCc1ccco1)c1nc(-c2ccccc2)c2c(C(F)(F)F)cc(-c3ccccc3)nc2n1`, the MIC entry in the test on Pseudomonas aeruginosa [1], in the test with Escherichia coli [3], in the test on Micrococcus luteus [4], in the test with Bacillus subtilis [5] and with Staphylococcus aureus [6] was “inactive” each time. For the same molecule, the MIC in the test with Raoultella planticola [2] (MTCC 530, 24 h) is 15.6 µg/mL (≈ 32.9 µM); against Staphylococcus aureus [7] (MTCC 96, 24 h) it was 7.8 µg/mL (≈ 16.4 µM). Besides, the IC50 (in general, the concentration that inhibits the measured activity by half) with Raoultella planticola [8] (setting [20]) was 5.4 µg/mL (≈ 11.4 µM); in the test on Staphylococcus aureus [9] (setting [21]), 2.7 µg/mL (≈ 5.69 µM); with Staphylococcus aureus [10] it was “Not Active”; in the test with Pseudomonas aeruginosa [15], “Not Active”; with Bacillus subtilis [18], “Not Active”. Further, the MBC (usually the smallest concentration meeting the test's criterion for killing) in the test with Staphylococcus aureus [11] (MTCC 96, 24 h) was found to be 15.6 µg/mL (≈ 32.9 µM); with Raoultella planticola [19] (MTCC 530, 24 h), 31.2 µg/mL (≈ 65.8 µM). Moreover, the MBC entry in the test with Bacillus subtilis [12], with Pseudomonas aeruginosa [13], in the test on Micrococcus luteus [14], with Escherichia coli [16] and with Staphylococcus aureus [17] was “inactive” throughout.

On to `CCNC(=O)c1nc(-c2ccccc2)c2c(C(F)(F)F)cc(-c3ccccc3)nc2n1`, for which the MIC entry with Pseudomonas aeruginosa [1], in the test with Escherichia coli [3], in the test with Micrococcus luteus [4], with Bacillus subtilis [5], in the test on Staphylococcus aureus [6] and with Staphylococcus aureus [7] was “inactive” in each case. Besides, the MIC in the test on Raoultella planticola [2] (MTCC 530, 24 h) is 31.2 µg/mL (≈ 73.9 µM).

Turning to `COc1ccc(-c2nc(C(=O)NC3CCCCC3)nc3nc(-c4ccccc4)cc(C(F)(F)F)c23)cc1`, the MIC entry in the test with Pseudomonas aeruginosa [1], in the test on Raoultella planticola [2], in the test on Escherichia coli [3], with Micrococcus luteus [4], in the test on Bacillus subtilis [5] and in the test with Staphylococcus aureus [6] was “inactive” in each case. Also, the IC50 entry in the test with Raoultella planticola [8] is “Not Active”; with Staphylococcus aureus [9] (setting [21]) it was 2.7 µg/mL (≈ 5.33 µM); in the test with Staphylococcus aureus [10], “Not Active”; with Pseudomonas aeruginosa [15] it was “Not Active”; in the test on Bacillus subtilis [18], “Not Active”. Moreover, the MBC in the test with Staphylococcus aureus [11] (MTCC 96, 24 h) is 7.8 µg/mL (≈ 15.4 µM). In addition, the MBC result in the test on Bacillus subtilis [12], in the test with Pseudomonas aeruginosa [13], in the test with Micrococcus luteus [14], in the test with Escherichia coli [16], in the test on Staphylococcus aureus [17] and with Raoultella planticola [19] was “inactive” throughout. This molecule also had an MIC against Staphylococcus aureus [7] (MTCC 96, 24 h) of 7.8 µg/mL (≈ 15.4 µM).

Regarding `O=C(O)c1cn(C2CC2)c2cc(N3CCNCC3)c(F)cc2c1=O` [CIPROFLOXACIN], the MIC against Pseudomonas aeruginosa [1] (MTCC 2453, 24 h) amounted to 0.9 µg/mL (≈ 2.72 µM); with Raoultella planticola [2] (MTCC 530, 24 h), 0.9 µg/mL (≈ 2.72 µM); with Escherichia coli [3] (MTCC 739, 24 h), 0.9 µg/mL (≈ 2.72 µM); against Micrococcus luteus [4] (MTCC 2470, 24 h) it was 0.9 µg/mL (≈ 2.72 µM); with Bacillus subtilis [5] (MTCC 121, 24 h), 0.9 µg/mL (≈ 2.72 µM); against Staphylococcus aureus [6] (MLS16 MTCC 2940, 24 h), 0.9 µg/mL (≈ 2.72 µM). The same molecule returned an MIC in the test with Staphylococcus aureus [7] (MTCC 96, 24 h) of 0.9 µg/mL (≈ 2.72 µM). Also, the IC50 in the test on Raoultella planticola [8] (setting [20]) came out at 0.29 µg/mL (≈ 0.875 µM); with Staphylococcus aureus [9] (setting [21]), 0.21 µg/mL (≈ 0.634 µM); in the test with Staphylococcus aureus [10] (Staphylococcus aureus, MLS16 MTCC 2940, 24 h, read-out: IC50), 0.24 µg/mL (≈ 0.724 µM); in the test on Pseudomonas aeruginosa [15] (Pseudomonas aeruginosa, MTCC 2453, 24 h, read-out: IC50), 0.32 µg/mL (≈ 0.966 µM); in the test with Bacillus subtilis [18] (Bacillus subtilis, MTCC 121, 24 h, read-out: IC50), 0.23 µg/mL (≈ 0.694 µM). Also, the MBC was 0.58 µg/mL (≈ 1.75 µM) against Staphylococcus aureus [11] (MTCC 96, 24 h); 0.58 µg/mL (≈ 1.75 µM) in the test with Bacillus subtilis [12] (MTCC 121, 24 h); 1.17 µg/mL (≈ 3.53 µM) in the test on Pseudomonas aeruginosa [13] (MTCC 2453, 24 h); 1.17 µg/mL (≈ 3.53 µM) in the test with Micrococcus luteus [14] (MTCC 2470, 24 h); 0.58 µg/mL (≈ 1.75 µM) in the test on Escherichia coli [16] (MTCC 739, 24 h); 1.17 µg/mL (≈ 3.53 µM) in the test with Staphylococcus aureus [17] (MLS16 MTCC 2940, 24 h). In the test on Raoultella planticola [19] (MTCC 530, 24 h), this molecule returned an MBC of 0.58 µg/mL (≈ 1.75 µM).

For the molecule `COc1ccc(-c2nc(C(=O)NCCO)nc3nc(-c4ccccc4)cc(C(F)(F)F)c23)cc1`, the MIC entry with Pseudomonas aeruginosa [1], in the test on Raoultella planticola [2], with Escherichia coli [3], in the test on Micrococcus luteus [4], in the test with Bacillus subtilis [5] and with Staphylococcus aureus [6] was “inactive” in each case. The MIC entry in the test with Staphylococcus aureus [7] is “inactive”.

`COc1ccc(-c2nc(C(=O)N3CCCC3)nc3nc(-c4ccccc4)cc(C(F)(F)F)c23)cc1`: the MIC result in the test on Pseudomonas aeruginosa [1], in the test with Escherichia coli [3], in the test with Micrococcus luteus [4], in the test on Bacillus subtilis [5], in the test with Staphylococcus aureus [6] and in the test on Staphylococcus aureus [7] was “inactive” throughout. In the test with Raoultella planticola [2] (MTCC 530, 24 h), this molecule yielded an MIC of 15.6 µg/mL (≈ 32.6 µM). For the same molecule, the IC50 in the test on Raoultella planticola [8] (setting [20]) is 10.8 µg/mL (≈ 22.6 µM); in the test with Staphylococcus aureus [9], “Not Active”; in the test on Staphylococcus aureus [10] it was “Not Active”; with Pseudomonas aeruginosa [15], “Not Active”; in the test with Bacillus subtilis [18], “Not Active”. In addition, the MBC result with Staphylococcus aureus [11], in the test with Bacillus subtilis [12], with Pseudomonas aeruginosa [13], in the test with Micrococcus luteus [14], with Escherichia coli [16] and with Staphylococcus aureus [17] was “inactive” throughout. Further, the MBC in the test on Raoultella planticola [19] (MTCC 530, 24 h) turned out to be 15.6 µg/mL (≈ 32.6 µM).

Regarding `COc1ccc(-c2nc(C(=O)NCc3ccco3)nc3nc(-c4ccccc4)cc(C(F)(F)F)c23)cc1`, the MIC entry in the test on Pseudomonas aeruginosa [1], in the test with Raoultella planticola [2], with Escherichia coli [3], in the test with Micrococcus luteus [4], in the test with Bacillus subtilis [5] and with Staphylococcus aureus [6] was “inactive” throughout. Besides, the MIC entry in the test on Staphylococcus aureus [7] is “inactive”.

Turning to `CCCNC(=O)c1nc(-c2ccc(OC)cc2)c2c(C(F)(F)F)cc(-c3ccccc3)nc2n1`, the MIC result in the test with Pseudomonas aeruginosa [1], in the test on Raoultella planticola [2], with Escherichia coli [3], with Micrococcus luteus [4], in the test on Bacillus subtilis [5] and with Staphylococcus aureus [6] was “inactive” in each case. For the same molecule, the MIC entry in the test on Staphylococcus aureus [7] was “inactive”.
